Consider three molecules from ChEMBL document CHEMBL3286207, “Development of a new class of proteasome inhibitors with an epoxyketone warhead: Rational hybridization of non-peptidic belactosin derivatives and peptide epoxyketones” (Bioorg Med Chem, 2014).

One experiment relates to HCT-116. Description: Cytotoxicity against human HCT116 cells assessed as growth inhibition after 72 hrs by CCK-8 assay. It counts as functional, cell-based. Conditions: HCT-116, 72 h. For orientation: Tetrazolium dyes change colour on reduction, which living cells bring about.
The target in another experiment is 26S proteasome. As to the kind of experiment: Inhibition of chymotrypsin-like of human 20S proteasome using chromophoric Suc-LLVY-AMC as substrate after 60 mins by fluorescence assay. Format: protein-complex assay.

The IC50 is the concentration needed to halve the response being measured. In the case of `CC[C@H](C)[C@@H]1C(=O)O[C@H]1C(=O)NCCC(COCc1ccccc1)COCc1ccccc1`, the IC50 in the experiment on HCT-116 was above 10000 nM.

For the molecule `CC(=O)N[C@@H](CC(=O)NCCC(COCc1ccccc1)COCc1ccccc1)C(=O)N[C@@H](CC(C)C)C(=O)[C@@]1(C)CO1`, the IC50 at 26S proteasome is 2300 nM; in the experiment with HCT-116, 1900 nM.

In the case of `CC(=O)N[C@@H](CC(=O)NCCCCOCc1ccccc1)C(=O)N[C@@H](CC(C)C)C(=O)[C@@]1(C)CO1`, the results for the IC50 against 26S proteasome and in the experiment on HCT-116 were 5700 nM and 2900 nM, respectively.
